{
  "source": "patent US9127079B2",
  "about": "“Inhibitors of phosphatase and tensin homolog (PTEN) conjugates” (THE UNIVERSITY OF BRITISH COLUMBIA, priority 2009, dated 2015)",
  "key": {"[1]": {"system": "PTEN", "assay": "Immunostaining of endogenous PTEN: nuclear translocation in cultured neurons with NMDA", "format": "cell-based, rat", "settings": "peptide 10 uM, NMDA stimulation", "procedure": "(§1) Dissociated cultures of rat cortical or hippocampal neurons were prepared from 18-d-old Sprague Dawley rat embryos as described previously (Mielke and Wang 2005). To obtain mixed cultures enriched with neurons, uridine (10 μM) and 5-Fluor-T-deoxyuridine (10 μM) were added to the culture medium at 3 d in vitro (DIV) and maintained for 48 h to inhibit non-neuronal cell proliferation before the cultures were returned to the normal culture medium. Mature neurons (12-14 DIV) were used for experiments.\nIn order to induce excitotoxicity, 12-14 DIV cultured neurons were washed and transferred to Mg2+-free extracellular solution (ECS) containing the following (in mM): 25 HEPES acid, 140 NaCl, 33 glucose, 5.4 KCl, and 1.3 CaCl2, with pH 7.35 and osmolarity 320-330 mOsm. ECS and subjected to NMDA-induced excitotoxicity (20 μM NMDA, 10 μM glycine, 60 min at room temperature) or any other experimental conditions as indicated in the texts. Cells were then washed twice with normal ECS, and returned to the original growth conditions until additional assay."}, "[2]": {"system": "PTEN", "assay": "Western blotting of nuclear fractions from cultured neurons: PTEN nuclear translocation", "format": "cell-based, rat", "settings": "NMDA stimulation", "procedure": "as §1\nIn order to induce excitotoxicity, 12-14 DIV cultured neurons were washed and transferred to Mg2+-free extracellular solution (ECS) containing the following (in mM): 25 HEPES acid, 140 NaCl, 33 glucose, 5.4 KCl, and 1.3 CaCl2, with pH 7.35 and osmolarity 320-330 mOsm. […]\nFor western blotting, 10 μg of the nuclear extract or 40 μg of total cell lysate (solubilized by 1% SDS, 1 mM EGTA, 1 mM EDTA, 1 mM DTT, 2 mM sodium orthovanadate, and protease inhibitors cocktail in PBS) from each treatment condition was separated with SDS-PAGE, transferred onto a polyvinylidene difluoride (PVDF) membrane, and probed with the relevant antibodies. […] Band intensities were quantified using NIH ImageJ™ software and normalized to the quantity of a nuclear marker or β-tubulin in each sample lane."}, "[3]": {"assay": "Infarct volume by MRI after cerebral ischemia (MCA/CCA ligation)", "format": "in vivo, rat", "settings": "for infarct volume assessed by MRI: seven days after cerebral ischemia; for Mean (infarct volume): given 6 hours after ischemia onset, n=8", "procedure": "(§2) Adult male Sprague-Dawley rats (weight 200 g) were used in this study. All surgical procedures were performed using sterile/aseptic techniques in accordance with Institutional guidelines. Rats were anesthetized with chloral hydrate (0.4 g/kg IP) and subjected to cerebral ischemia. Ligation of the right middle cerebral artery (MCA) and bilateral common carotids arteries (CCAs) was performed by methods described previously (Shyu et al. 2005). The CCAs were clamped with non-traumatic arterial clips. The right MCA was ligated with a 10-0 nylone suture. After 90 min of ischemia, the suture on the MCA and the arterial clips on the CCAs were removed to allow reperfusion. Core body temperature was monitored with a thermistor probe (Hewlett-Packard™ Model 21090A probe, Hewlett-Packard Company™, Andover, Mass.), and maintained at 37° C. with a heating pad during anesthesia. After recovery from anesthesia, rat body temperature was maintained at 37° C. with a heat lamp. […]\nMRI was performed on rats under anesthesia in an imaging system (R4, GE™) at 3.0 T. Brains were scanned in 6 to 8 coronal image slices, each 2 mm thick without any gaps. T2-weighted imaging (T2WI) pulse sequences were obtained with the use of a spin-echo technique (repetition time, 4000 ms; echo time, 105 ms) and were captured sequentially for each animal at day 7 after cerebral ischemia. To measure the infarction area in the right cortex, we subtracted the noninfarcted area in the right cortex from the total cortical area of the left hemisphere (Shyu et al. 2004). The area of infarct was drawn manually from slice to slice, and the volume was then calculated by internal volume analysis software (Voxtool™, General Electric™)."}, "[4]": {"assay": "Forelimb grip strength after cerebral ischemia", "format": "in vivo, rat", "settings": "before vs 28 days after ischemia", "procedure": "as §2, with “anesthesia.” for “anesthesia. After recovery from anesthesia, rat body temperature was maintained at 37° C. with a heat lamp.”\nBehavioral assessments were measured on day 28 after stroke. […] The baseline-test scores were recorded in order to normalize those taken after cerebral ischemia. The elevated body swing test (EBST) was used to assess body asymmetry after MCA ligation and evaluated quantitatively as previously described (Shyu et al. 2004). […] The frequency of initial head swing contra-lateral to the ischemic side was counted in twenty continuous tests and was normalized, as follows: % recovery=[1−(lateral swings in twenty tests−10)/10×100%. […]"}},
  "data": [
    {"substance": "KEIVSRNKRRYQED-YGRKKRRQRRR (KEIVSRNKRRYQEDYGRKKRRQRRR; PTEN K13 interference peptide conjugated to TAT protein transduction domain) [Peptide-K13]", "values": [
      {"measurement": "PTEN nuclear translocation (endogenous PTEN immunostaining)", "setting": "[1]", "value": "prevented PTEN nuclear translocation"},
      {"measurement": "PTEN nuclear translocation (western blotting of nuclear fractions)", "setting": "[2]", "value": "prevents PTEN nuclear translocation"},
      {"measurement": "decrease in infarct volume as compared to the control", "setting": "[3]; 1.0 mg/kg intravenous", "value": "greater than 50%"},
      {"measurement": "decrease in infarct volume as compared to the control", "setting": "[3]; 10 mg/kg intravenous", "value": "greater than 50%"},
      {"measurement": "infarct volume assessed by MRI", "setting": "[3]; i.v. 8.4 mg/kg given 2 hours after ischemia onset", "value": "significantly reduced"},
      {"measurement": "infarct volume assessed by MRI", "setting": "[3]; i.v. 8.4 mg/kg given 6 hours after ischemia onset", "value": "significantly reduced"},
      {"measurement": "Mean (infarct volume)", "setting": "[3]; intravenous 0.1 mg/kg", "value": 160.900},
      {"measurement": "Mean (infarct volume)", "setting": "[3]; intravenous 1.0 mg/kg", "value": 72.850},
      {"measurement": "Mean (infarct volume)", "setting": "[3]; intravenous 10 mg/kg", "value": 63.700},
      {"measurement": "forelimb grip strength ratio", "setting": "[4]; given 2 hours after ischemia", "value": "much better strength ratio"},
      {"measurement": "forelimb grip strength ratio", "setting": "[4]; given 6 hours after ischemia", "value": "much better strength ratio"}
    ]}
  ]
}
